According to ChEMBL document CHEMBL1139626, “Total asymmetric synthesis of (-)-conduramine B-1 and of its enantiomer. N-Benzyl derivatives of conduramine B-1 are beta-glucosidase inhibitors” (Bioorg Med Chem Lett, 2005):
Activity calls are given as the source filed them. No cut-off for these calls is given here.

system: Prunus dulcis; test: Percent inhibition against Beta Glucosidase from Almonds at 1 mM

Row | inhibition | Compound
1 | 51% | OC1C=CC(NCc2ccc(Cl)cc2)C(O)C1O (stereo in doubt)
2 | 96% | OC1C=CC(NCc2ccc(Cl)cc2)C(O)C1O (stereo in doubt; 4h)
3 | 51% | OC1C=CC(NCc2ccccc2)C(O)C1O (stereo in doubt)
4 | 36% | OC1C=CC(N(CCc2ccccc2)CCc2ccccc2)C(O)C1O (racemic)
5 | 56% | OC1C=CC(NCc2ccc(-c3ccccc3)cc2)C(O)C1O (stereo in doubt)
6 | 26% | Oc1ccc(CNC2C=CC(O)C(O)C2O)cc1 (stereo in doubt)
7 | 51% | COc1ccc(CNC2C=CC(O)C(O)C2O)cc1 (stereo in doubt)
8 | 97% | OC1C=CC(NCc2ccc(Oc3ccccc3)cc2)C(O)C1O (stereo in doubt; 4j)

Row | Compound | inhibition
9 | OC1C=CC(NCCc2ccccc2)C(O)C1O (racemic) | 86%
10 | CCCN(CCC)C1C=CC(O)C(O)C1O (racemic) | 36%
11 | CCCCCCNC1C=CC(O)C(O)C1O (racemic) | 92%

molecular target: Beta-glucosidase A (Caldicellulosiruptor saccharolyticus) (UniProt P10482); test: Percent inhibition against Beta Glucosidase from Caldocellum saccharolyticum at 1 mM
Sequence (P10482 whole entry): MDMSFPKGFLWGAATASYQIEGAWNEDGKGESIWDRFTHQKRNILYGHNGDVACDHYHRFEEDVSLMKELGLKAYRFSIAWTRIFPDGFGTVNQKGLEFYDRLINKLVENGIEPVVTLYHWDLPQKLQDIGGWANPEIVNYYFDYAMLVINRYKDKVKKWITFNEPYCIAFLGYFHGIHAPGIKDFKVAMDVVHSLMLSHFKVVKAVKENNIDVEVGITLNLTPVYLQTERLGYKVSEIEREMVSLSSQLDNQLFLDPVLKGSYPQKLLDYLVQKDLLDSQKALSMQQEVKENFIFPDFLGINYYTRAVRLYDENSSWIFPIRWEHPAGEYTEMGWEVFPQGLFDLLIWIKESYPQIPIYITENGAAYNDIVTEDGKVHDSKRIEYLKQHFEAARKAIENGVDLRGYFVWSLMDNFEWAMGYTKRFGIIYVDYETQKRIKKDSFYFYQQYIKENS

Row | inhibition | Compound
12 | 84% | OC1C=CC(NCc2ccc(Cl)cc2)C(O)C1O (stereo in doubt; 4h)
13 | 71% | OC1C=CC(NCc2ccc(Oc3ccccc3)cc2)C(O)C1O (stereo in doubt; 4j)

molecular target: Glucoamylase (Aspergillus niger) (UniProt P69328); test: Percent inhibition against Amyloglucosidase from Aspergillus niger at 1 mM concentration
Sequence (P69328 whole entry): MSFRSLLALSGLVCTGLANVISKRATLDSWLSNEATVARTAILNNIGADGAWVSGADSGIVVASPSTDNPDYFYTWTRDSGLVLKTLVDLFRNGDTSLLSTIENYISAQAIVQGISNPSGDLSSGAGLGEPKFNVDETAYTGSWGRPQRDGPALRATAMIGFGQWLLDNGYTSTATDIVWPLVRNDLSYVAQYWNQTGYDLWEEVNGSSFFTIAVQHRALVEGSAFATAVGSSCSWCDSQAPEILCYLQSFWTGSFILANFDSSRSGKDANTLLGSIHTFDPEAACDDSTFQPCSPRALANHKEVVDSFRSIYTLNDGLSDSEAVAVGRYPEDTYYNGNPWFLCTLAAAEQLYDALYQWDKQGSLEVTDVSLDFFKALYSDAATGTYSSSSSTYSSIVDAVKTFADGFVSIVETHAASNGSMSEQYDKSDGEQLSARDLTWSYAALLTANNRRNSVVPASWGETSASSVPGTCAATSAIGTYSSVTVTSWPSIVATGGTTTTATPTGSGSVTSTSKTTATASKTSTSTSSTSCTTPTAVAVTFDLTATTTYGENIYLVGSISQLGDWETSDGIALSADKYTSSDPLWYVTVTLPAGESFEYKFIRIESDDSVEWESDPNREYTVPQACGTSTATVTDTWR

Row | inhibition | Compound
14 | 45% | OC1C=CC(NCc2ccc(Cl)cc2)C(O)C1O (stereo in doubt)
15 | 63% | OC1C=CC(NCc2ccccc2)C(O)C1O (stereo in doubt)
16 | 94% | Oc1ccc(CNC2C=CC(O)C(O)C2O)cc1 (stereo in doubt)
17 | 63% | COc1ccc(CNC2C=CC(O)C(O)C2O)cc1 (stereo in doubt)

system: not listed separately; test: Inhibition against Alpha Glucosidase from yeast at 1 mM; (ni=no inhibition)

Row | inhibition | Compound
18 | inactive | OC1C=CC(NCc2ccc(Cl)cc2)C(O)C1O (stereo in doubt)
19 | inactive | OC1C=CC(NCc2ccc(Cl)cc2)C(O)C1O (stereo in doubt; 4h)
20 | inactive | OC1C=CC(NCc2ccccc2)C(O)C1O (stereo in doubt)
21 | inactive | OC1C=CC(N(CCc2ccccc2)CCc2ccccc2)C(O)C1O (racemic)
22 | inactive | OC1C=CC(NCc2ccc(-c3ccccc3)cc2)C(O)C1O (stereo in doubt)
23 | inactive | Oc1ccc(CNC2C=CC(O)C(O)C2O)cc1 (stereo in doubt)
24 | inactive | COc1ccc(CNC2C=CC(O)C(O)C2O)cc1 (stereo in doubt)
25 | inactive | OC1C=CC(NCc2ccc(Oc3ccccc3)cc2)C(O)C1O (stereo in doubt; 4j)

Row | Compound | inhibition
26 | OC1C=CC(NCCc2ccccc2)C(O)C1O (racemic) | inactive
27 | CCCN(CCC)C1C=CC(O)C(O)C1O (racemic) | inactive
28 | CCCCCCNC1C=CC(O)C(O)C1O (racemic) | inactive

molecular target: T1, Glucoamylase 1 (Rhizopus oryzae) (UniProt P07683); test: Percent inhibition against Amyloglucosidase from Rhizopus mold at 1 mM
T1 sequence (whole entry): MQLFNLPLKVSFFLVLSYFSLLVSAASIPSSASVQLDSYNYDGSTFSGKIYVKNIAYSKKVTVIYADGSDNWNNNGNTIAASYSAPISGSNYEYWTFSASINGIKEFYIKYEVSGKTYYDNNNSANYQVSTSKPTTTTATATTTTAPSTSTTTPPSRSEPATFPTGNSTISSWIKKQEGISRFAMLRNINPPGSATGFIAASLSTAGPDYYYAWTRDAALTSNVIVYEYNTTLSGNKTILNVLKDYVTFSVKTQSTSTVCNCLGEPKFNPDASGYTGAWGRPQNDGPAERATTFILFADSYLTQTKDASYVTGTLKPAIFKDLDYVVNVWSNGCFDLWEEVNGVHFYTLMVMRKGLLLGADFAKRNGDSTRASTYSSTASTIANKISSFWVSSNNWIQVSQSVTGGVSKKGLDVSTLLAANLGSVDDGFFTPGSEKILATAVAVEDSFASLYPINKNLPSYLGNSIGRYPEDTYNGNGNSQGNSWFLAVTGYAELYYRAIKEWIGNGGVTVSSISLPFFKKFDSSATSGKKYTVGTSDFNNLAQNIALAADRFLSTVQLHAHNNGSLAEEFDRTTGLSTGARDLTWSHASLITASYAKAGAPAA

Row | inhibition | Compound
29 | 72% | OC1C=CC(NCc2ccc(Cl)cc2)C(O)C1O (stereo in doubt)
30 | 72% | OC1C=CC(NCc2ccccc2)C(O)C1O (stereo in doubt)
31 | 85% | Oc1ccc(CNC2C=CC(O)C(O)C2O)cc1 (stereo in doubt)
32 | 72% | COc1ccc(CNC2C=CC(O)C(O)C2O)cc1 (stereo in doubt)

molecular target: Beta-glucosidase A (Caldicellulosiruptor saccharolyticus) (UniProt P10482); test: Inhibition against Beta Glucosidase from Caldocellum saccharolyticum at 1 mM; (ni=no inhibition)

Row | inhibition | Compound
33 | inactive | OC1C=CC(NCc2ccc(Cl)cc2)C(O)C1O (stereo in doubt)
34 | inactive | OC1C=CC(NCc2ccccc2)C(O)C1O (stereo in doubt)
35 | inactive | OC1C=CC(N(CCc2ccccc2)CCc2ccccc2)C(O)C1O (racemic)
36 | inactive | OC1C=CC(NCc2ccc(-c3ccccc3)cc2)C(O)C1O (stereo in doubt)
37 | inactive | Oc1ccc(CNC2C=CC(O)C(O)C2O)cc1 (stereo in doubt)
38 | inactive | COc1ccc(CNC2C=CC(O)C(O)C2O)cc1 (stereo in doubt)

Row | Compound | inhibition
39 | CCCN(CCC)C1C=CC(O)C(O)C1O (racemic) | inactive

molecular target: T2, Exo-1,4-beta-xylosidase xlnD (Aspergillus niger) (UniProt O00089); test: Inhibition against Beta-xylosidase from Aspergillus niger at 1 mM; (ni=no inhibition)
T2 sequence (whole entry): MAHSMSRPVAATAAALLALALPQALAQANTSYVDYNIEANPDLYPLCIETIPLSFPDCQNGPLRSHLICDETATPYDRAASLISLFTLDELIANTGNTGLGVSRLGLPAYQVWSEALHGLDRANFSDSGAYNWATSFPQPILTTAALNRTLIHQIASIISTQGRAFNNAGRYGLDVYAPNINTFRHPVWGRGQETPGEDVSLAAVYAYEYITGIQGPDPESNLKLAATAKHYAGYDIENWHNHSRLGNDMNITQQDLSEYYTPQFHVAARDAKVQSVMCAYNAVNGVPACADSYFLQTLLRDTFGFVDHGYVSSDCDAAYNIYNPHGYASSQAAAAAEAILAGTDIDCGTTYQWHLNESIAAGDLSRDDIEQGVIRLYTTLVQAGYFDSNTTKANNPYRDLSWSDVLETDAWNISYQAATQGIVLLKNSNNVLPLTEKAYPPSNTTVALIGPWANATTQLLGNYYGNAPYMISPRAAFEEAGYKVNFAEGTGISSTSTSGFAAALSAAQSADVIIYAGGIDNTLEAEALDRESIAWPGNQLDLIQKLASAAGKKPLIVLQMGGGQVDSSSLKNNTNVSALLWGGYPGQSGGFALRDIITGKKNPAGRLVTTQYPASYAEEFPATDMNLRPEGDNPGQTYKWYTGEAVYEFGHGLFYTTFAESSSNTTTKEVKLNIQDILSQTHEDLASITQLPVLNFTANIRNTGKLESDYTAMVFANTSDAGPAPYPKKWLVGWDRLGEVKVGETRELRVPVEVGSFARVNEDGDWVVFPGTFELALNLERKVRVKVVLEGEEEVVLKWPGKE

Row | inhibition | Compound
40 | inactive | OC1C=CC(NCc2ccc(Cl)cc2)C(O)C1O (stereo in doubt)
41 | inactive | OC1C=CC(NCc2ccc(Cl)cc2)C(O)C1O (stereo in doubt; 4h)
42 | inactive | OC1C=CC(NCc2ccccc2)C(O)C1O (stereo in doubt)
43 | inactive | OC1C=CC(N(CCc2ccccc2)CCc2ccccc2)C(O)C1O (racemic)
44 | inactive | OC1C=CC(NCc2ccc(-c3ccccc3)cc2)C(O)C1O (stereo in doubt)
45 | inactive | Oc1ccc(CNC2C=CC(O)C(O)C2O)cc1 (stereo in doubt)
46 | inactive | COc1ccc(CNC2C=CC(O)C(O)C2O)cc1 (stereo in doubt)
47 | inactive | OC1C=CC(NCc2ccc(Oc3ccccc3)cc2)C(O)C1O (stereo in doubt; 4j)

Row | Compound | inhibition
48 | OC1C=CC(NCCc2ccccc2)C(O)C1O (racemic) | inactive
49 | CCCN(CCC)C1C=CC(O)C(O)C1O (racemic) | inactive
50 | CCCCCCNC1C=CC(O)C(O)C1O (racemic) | inactive

molecular target: T1, Glucoamylase 1 (Rhizopus oryzae); test: Inhibition against Amyloglucosidase from Rhizopus mold at 1 mM; (ni=no inhibition)

Row | inhibition | Compound
51 | inactive | OC1C=CC(NCc2ccc(Cl)cc2)C(O)C1O (stereo in doubt; 4h)
52 | inactive | OC1C=CC(N(CCc2ccccc2)CCc2ccccc2)C(O)C1O (racemic)
53 | inactive | OC1C=CC(NCc2ccc(-c3ccccc3)cc2)C(O)C1O (stereo in doubt)
54 | inactive | OC1C=CC(NCc2ccc(Oc3ccccc3)cc2)C(O)C1O (stereo in doubt; 4j)

Row | Compound | inhibition
55 | OC1C=CC(NCCc2ccccc2)C(O)C1O (racemic) | inactive
56 | CCCN(CCC)C1C=CC(O)C(O)C1O (racemic) | inactive
57 | CCCCCCNC1C=CC(O)C(O)C1O (racemic) | inactive

molecular target: not listed separately; test: Inhibitory concentration against Beta Glucosidase from Almonds; parameters: species or system Prunus dulcis

Row | Compound | IC50
58 | OC1C=CC(NCCc2ccccc2)C(O)C1O (racemic) | 32 µM
59 | CCCCCCNC1C=CC(O)C(O)C1O (racemic) | 32 µM

molecular target: Glucoamylase (Aspergillus niger) (UniProt P69328); test: Inhibition against Amyloglucosidase from Aspergillus niger at 1 mM; (ni=no inhibition)

Row | inhibition | Compound
60 | inactive | OC1C=CC(NCc2ccc(Cl)cc2)C(O)C1O (stereo in doubt; 4h)
61 | inactive | OC1C=CC(N(CCc2ccccc2)CCc2ccccc2)C(O)C1O (racemic)
62 | inactive | OC1C=CC(NCc2ccc(-c3ccccc3)cc2)C(O)C1O (stereo in doubt)
63 | inactive | OC1C=CC(NCc2ccc(Oc3ccccc3)cc2)C(O)C1O (stereo in doubt; 4j)

Row | Compound | inhibition
64 | OC1C=CC(NCCc2ccccc2)C(O)C1O (racemic) | inactive
65 | CCCN(CCC)C1C=CC(O)C(O)C1O (racemic) | inactive
66 | CCCCCCNC1C=CC(O)C(O)C1O (racemic) | inactive

molecular target: T3, Alpha-glucosidase (Oryza sativa Japonica Group) (UniProt Q9LGC6); test: Inhibition against Alpha Glucosidase from rice at 1 mM; (ni=no inhibition)
T3 sequence (whole entry): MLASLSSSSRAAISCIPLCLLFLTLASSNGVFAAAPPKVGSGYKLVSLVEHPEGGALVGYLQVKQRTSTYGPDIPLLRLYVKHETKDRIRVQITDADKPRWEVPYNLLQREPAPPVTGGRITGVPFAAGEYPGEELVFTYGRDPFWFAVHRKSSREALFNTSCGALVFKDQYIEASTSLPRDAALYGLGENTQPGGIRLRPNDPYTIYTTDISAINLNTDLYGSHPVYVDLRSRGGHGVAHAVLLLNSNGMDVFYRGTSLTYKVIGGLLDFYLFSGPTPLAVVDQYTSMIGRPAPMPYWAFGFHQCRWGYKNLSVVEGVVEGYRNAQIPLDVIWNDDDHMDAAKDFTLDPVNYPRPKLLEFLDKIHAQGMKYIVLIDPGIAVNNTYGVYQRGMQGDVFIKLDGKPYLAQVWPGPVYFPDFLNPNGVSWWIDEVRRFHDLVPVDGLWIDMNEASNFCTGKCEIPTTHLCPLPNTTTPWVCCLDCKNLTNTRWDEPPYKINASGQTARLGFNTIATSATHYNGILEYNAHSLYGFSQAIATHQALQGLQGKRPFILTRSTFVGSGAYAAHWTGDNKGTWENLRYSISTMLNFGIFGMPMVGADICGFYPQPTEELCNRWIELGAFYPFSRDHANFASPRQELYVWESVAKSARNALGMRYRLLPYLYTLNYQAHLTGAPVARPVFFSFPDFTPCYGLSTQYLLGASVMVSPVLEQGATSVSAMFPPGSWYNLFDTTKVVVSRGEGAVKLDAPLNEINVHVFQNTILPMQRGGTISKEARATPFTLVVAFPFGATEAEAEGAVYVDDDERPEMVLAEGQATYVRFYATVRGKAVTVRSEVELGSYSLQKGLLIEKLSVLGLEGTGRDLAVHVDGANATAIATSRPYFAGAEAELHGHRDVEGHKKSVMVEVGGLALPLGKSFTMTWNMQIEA

Row | inhibition | Compound
67 | inactive | OC1C=CC(NCc2ccc(Cl)cc2)C(O)C1O (stereo in doubt)
68 | inactive | OC1C=CC(NCc2ccc(Cl)cc2)C(O)C1O (stereo in doubt; 4h)
69 | inactive | OC1C=CC(NCc2ccccc2)C(O)C1O (stereo in doubt)
70 | inactive | OC1C=CC(N(CCc2ccccc2)CCc2ccccc2)C(O)C1O (racemic)
71 | inactive | OC1C=CC(NCc2ccc(-c3ccccc3)cc2)C(O)C1O (stereo in doubt)
72 | inactive | Oc1ccc(CNC2C=CC(O)C(O)C2O)cc1 (stereo in doubt)
73 | inactive | COc1ccc(CNC2C=CC(O)C(O)C2O)cc1 (stereo in doubt)
74 | inactive | OC1C=CC(NCc2ccc(Oc3ccccc3)cc2)C(O)C1O (stereo in doubt; 4j)

Row | Compound | inhibition
75 | OC1C=CC(NCCc2ccccc2)C(O)C1O (racemic) | inactive
76 | CCCN(CCC)C1C=CC(O)C(O)C1O (racemic) | inactive
77 | CCCCCCNC1C=CC(O)C(O)C1O (racemic) | inactive
